Data from US11447466B2, “Substituted indole compounds useful as inhibitors of TLR7/8/9” (BRISTOL-MYERS SQUIBB COMPANY, priority 2017, dated 2022).

What was measured:
Assay type in all cases: cell-based
[1] = target: T1, human TLR8 (Homo sapiens, UniProt Q9NR97); assay: TLR8 inhibition reporter assay (HEK-Blue SEAP reporter, R848 stimulation); details: HEK-Blue cells overexpressing human TLR8, SEAP reporter, R848 15.9 μM, 22 hour incubation
T1 construct: host or cells: HEK-Blue cells
T1 sequence (Q9NR97 27-1041): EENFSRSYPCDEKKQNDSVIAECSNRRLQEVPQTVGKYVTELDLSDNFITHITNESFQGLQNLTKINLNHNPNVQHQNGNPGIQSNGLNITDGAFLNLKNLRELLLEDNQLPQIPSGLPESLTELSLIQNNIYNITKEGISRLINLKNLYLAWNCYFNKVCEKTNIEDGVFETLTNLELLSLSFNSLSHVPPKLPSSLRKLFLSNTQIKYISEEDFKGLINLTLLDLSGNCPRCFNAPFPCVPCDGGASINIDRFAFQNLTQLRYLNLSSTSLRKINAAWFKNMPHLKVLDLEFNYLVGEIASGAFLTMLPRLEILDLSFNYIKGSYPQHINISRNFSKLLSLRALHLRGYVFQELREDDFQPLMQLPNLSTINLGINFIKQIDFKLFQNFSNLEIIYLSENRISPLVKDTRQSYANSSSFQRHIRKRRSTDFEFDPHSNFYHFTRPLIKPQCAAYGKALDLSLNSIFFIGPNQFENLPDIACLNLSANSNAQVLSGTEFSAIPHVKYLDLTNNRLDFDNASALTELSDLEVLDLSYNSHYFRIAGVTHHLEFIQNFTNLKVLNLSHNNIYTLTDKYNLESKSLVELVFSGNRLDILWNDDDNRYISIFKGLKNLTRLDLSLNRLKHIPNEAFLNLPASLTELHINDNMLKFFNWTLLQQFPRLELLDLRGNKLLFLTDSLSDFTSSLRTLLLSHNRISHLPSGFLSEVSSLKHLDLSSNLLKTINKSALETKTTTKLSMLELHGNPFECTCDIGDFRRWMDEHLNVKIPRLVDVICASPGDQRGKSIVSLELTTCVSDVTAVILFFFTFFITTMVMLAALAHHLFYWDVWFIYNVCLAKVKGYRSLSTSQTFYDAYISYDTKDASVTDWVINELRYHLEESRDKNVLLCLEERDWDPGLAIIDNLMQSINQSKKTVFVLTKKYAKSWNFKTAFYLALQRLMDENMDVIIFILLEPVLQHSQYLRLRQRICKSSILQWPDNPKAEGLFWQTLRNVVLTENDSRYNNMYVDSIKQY
Summary of the method: (§1)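 Agonists used: gardiquimod 7.5 μM (TLR7), R848 15.9 μM (TLR8), ODN2006 5 nM (TLR9), added after 30 min room-temperature compound pre-treatment (0.05 nM–50 μM) of receptor-overexpressing HEK-Blue cells. SEAP reporter (NF-κB/AP-1 driven) read after 22 h at 37 °C; inhibition scaled between agonist+DMSO and reference-inhibitor wells.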

[2] = target: T2, human TLR9 (Homo sapiens, UniProt Q9NR96); assay: TLR9 inhibition reporter assay (HEK-Blue SEAP reporter, ODN2006 stimulation); details: HEK-Blue cells overexpressing human TLR9, SEAP reporter, ODN2006 5 nM, 22 hour incubation
T2 construct: host or cells: HEK-Blue cells
T2 sequence (Q9NR96 26-1032): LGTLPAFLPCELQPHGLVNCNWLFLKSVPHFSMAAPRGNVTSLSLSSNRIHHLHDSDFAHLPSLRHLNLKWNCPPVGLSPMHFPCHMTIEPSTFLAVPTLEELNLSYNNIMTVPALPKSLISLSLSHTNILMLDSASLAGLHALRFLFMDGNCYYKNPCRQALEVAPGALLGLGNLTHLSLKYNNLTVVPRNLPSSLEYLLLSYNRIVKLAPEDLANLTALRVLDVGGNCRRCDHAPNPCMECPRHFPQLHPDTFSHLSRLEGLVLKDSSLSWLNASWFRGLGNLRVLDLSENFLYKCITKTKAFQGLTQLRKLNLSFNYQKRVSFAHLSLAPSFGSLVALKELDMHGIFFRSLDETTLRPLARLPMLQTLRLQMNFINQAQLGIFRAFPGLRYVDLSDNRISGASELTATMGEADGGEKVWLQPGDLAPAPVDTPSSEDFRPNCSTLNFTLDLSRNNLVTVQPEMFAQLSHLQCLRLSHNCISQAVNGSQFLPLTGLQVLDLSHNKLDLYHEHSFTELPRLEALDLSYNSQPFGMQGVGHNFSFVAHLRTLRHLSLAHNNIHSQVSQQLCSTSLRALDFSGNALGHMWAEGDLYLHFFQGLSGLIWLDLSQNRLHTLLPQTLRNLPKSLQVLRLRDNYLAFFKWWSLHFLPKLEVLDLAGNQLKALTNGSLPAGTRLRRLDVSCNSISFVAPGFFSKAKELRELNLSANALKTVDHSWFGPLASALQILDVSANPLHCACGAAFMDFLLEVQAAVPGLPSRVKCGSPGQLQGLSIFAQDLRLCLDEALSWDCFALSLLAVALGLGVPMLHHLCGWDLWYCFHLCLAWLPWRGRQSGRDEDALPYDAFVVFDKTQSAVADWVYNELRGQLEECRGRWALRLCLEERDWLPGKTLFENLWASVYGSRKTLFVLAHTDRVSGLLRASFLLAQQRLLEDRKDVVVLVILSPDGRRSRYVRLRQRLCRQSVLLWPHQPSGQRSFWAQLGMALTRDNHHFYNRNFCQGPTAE
Method: TLR7/8/9 Inhibition Reporter Assays
HEK-Blue™-cells (Invivogen) overexpressing human TLR7, TLR8 or TLR9 receptors were used for screening inhibitors of these receptors using an inducible SEAP (secreted embryonic alkaline phosphatase) reporter gene under the control of the IFN-β minimal promoter fused to five NF-κB and AP-1-binding sites. Briefly, cells are seeded into Greiner 384 well plates (15000 cells per well for TLR7, 20,000 for TLR8 and 25,000 for TLR9) and then treated with test compounds in DMSO to yield a final dose response concentration range of 0.05 nM-50 μM. After a 30 minute compound pre-treatment at room temperature, the cells are then stimulated with a TLR7 ligand (gardiquimod at a final concentration of 7.5 μM), TLR8 ligand (R848 at a final concentration of 15.9 μM) or TLR9 ligand (ODN2006 at a final concentration of 5 nM) to activate NF-κB and AP-1 which induce the production of SEAP. After a 22 hour incubation at 37° C., 5% CO2, SEAP levels are determined with the addition of HEK-Blue™ Detection reagent (Invivogen), a cell culture medium that allows for detection of SEAP, according to manufacturer's specifications. The percent inhibition is determined as the % reduction in the HEK-Blue signal present in wells treated with agonist plus DMSO alone compared to wells treated with a known inhibitor.

[3] = target: T3, human TLR7 (Homo sapiens, UniProt Q9NYK1); assay: TLR7 inhibition reporter assay (HEK-Blue SEAP reporter, gardiquimod stimulation); details: HEK-Blue cells overexpressing human TLR7, SEAP reporter, gardiquimod 7.5 μM, 22 hour incubation
T3 construct: host or cells: HEK-Blue cells
T3 sequence (Q9NYK1 27-1049): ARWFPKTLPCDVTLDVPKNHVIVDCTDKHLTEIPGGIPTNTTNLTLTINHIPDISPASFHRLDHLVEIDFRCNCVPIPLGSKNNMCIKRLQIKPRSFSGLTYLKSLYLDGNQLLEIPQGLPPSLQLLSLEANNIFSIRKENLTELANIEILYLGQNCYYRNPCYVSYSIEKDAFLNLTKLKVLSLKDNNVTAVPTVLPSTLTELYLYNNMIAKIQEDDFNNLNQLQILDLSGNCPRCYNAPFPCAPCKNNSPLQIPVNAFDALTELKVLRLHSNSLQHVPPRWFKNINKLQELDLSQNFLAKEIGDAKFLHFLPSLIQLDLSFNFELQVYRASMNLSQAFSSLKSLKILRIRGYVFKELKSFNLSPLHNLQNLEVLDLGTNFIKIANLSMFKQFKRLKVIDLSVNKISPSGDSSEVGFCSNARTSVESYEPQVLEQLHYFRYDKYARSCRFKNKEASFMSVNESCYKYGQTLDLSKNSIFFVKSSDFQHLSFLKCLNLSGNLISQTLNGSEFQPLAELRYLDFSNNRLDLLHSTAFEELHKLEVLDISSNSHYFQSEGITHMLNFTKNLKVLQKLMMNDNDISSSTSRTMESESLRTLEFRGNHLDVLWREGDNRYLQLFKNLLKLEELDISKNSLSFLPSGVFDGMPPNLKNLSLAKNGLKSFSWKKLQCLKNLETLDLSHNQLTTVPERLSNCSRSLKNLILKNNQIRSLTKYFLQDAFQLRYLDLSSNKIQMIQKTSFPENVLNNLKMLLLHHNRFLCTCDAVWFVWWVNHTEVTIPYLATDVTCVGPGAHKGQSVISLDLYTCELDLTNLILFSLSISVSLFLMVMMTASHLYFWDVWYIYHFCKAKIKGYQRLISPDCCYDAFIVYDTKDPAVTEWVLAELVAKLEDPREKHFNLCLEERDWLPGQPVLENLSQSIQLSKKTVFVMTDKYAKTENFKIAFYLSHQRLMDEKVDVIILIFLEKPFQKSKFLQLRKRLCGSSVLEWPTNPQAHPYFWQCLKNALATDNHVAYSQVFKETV
Summary of the method: as §1

Structure (SMILES)	IC50 [1] [nM]	IC50 [2] [µM]	IC50 [3] [nM]
CC(C)c1c(-c2cc(-c3cccnc3)c(=O)n(C)c2)[nH]c2ccc(C3CCN(CC(=O)N(C)C)CC3)cc12 [Example 169, 2-(4-(3-isopropyl-2-(1-methyl-2-oxo-1,2-dihydro-[3,3′-bipyridin]-5-yl)-1H-indol-5-yl)piperidin-1-yl)-N,N-dimethylacetamide]	6.2	1.8	11.9
CNC(=O)CN1CCC(c2ccc3[nH]c(-c4cc(OC)c(=O)n(C)c4)c(C(C)C)c3c2)CC1 [Example 129, 2-(4-(3-isopropyl-2-(5-methoxy-1-methyl-6-oxo-1,6-dihydropyridin-3-yl)-1H-indol-5-yl)piperidin-1-yl)-N-methylacetamide]	8	2.93	5
CNC(=O)CN1CCC(c2ccc3[nH]c(-c4cn(C)c(=O)c(OC)c4C)c(C(C)C)c3c2)CC1 [Example 140, 2-(4-(3-isopropyl-2-(5-methoxy-1,4-dimethyl-6-oxo-1,6-dihydropyridin-3-yl)-1H-indol-5-yl)piperidin-1-yl)-N-methylacetamide]	39.7	21.9	47.8
CC(C)c1c(-c2cc(-c3cncnc3)c(=O)n(C)c2)[nH]c2ccc(C3CCN(CC4CCOC4)CC3)c(F)c12 (stereo not drawn) [Example 259, 5-(4-fluoro-3-isopropyl-5-(1-((tetrahydrofuran-3-yl)methyl)piperidin-4-yl)-1H-indol-2-yl)-1-methyl-3-(pyrimidin-5-yl)pyridin-2(1H)-one]	0.6	0.983	6.1
COCc1cc(-c2[nH]c3ccc(C4CCN(C(=O)CN(C)C)CC4)cc3c2C(C)C)cn(C)c1=O [Example 277, 5-(5-(1-(dimethylglycyl)piperidin-4-yl)-3-isopropyl-1H-indol-2-yl)-3-(methoxymethyl)-1-methylpyridin-2(1H)-one]	21	15.6	9.3
Cc1c(-c2[nH]c3ccc(C4CCN(CC5CCCO5)CC4)cc3c2C(C)C)cn(C)c(=O)c1Cl (stereo not drawn) [Example 250, 3-chloro-5-(3-isopropyl-5-(1-((tetrahydrofuran-2-yl)methyl)piperidin-4-yl)-1H-indol-2-yl)-1,4-dimethylpyridin-2(1H)-one]	4.8	3.01	6.3
Cc1cc(-c2[nH]c3ccc(C4CCN([C@H]5CCOC[C@@H]5O)CC4)cc3c2C(C)C)cn(C)c1=O [Example 313, 5-(5-(1-((3R,4S)-3-hydroxytetrahydro-2H-pyran-4-yl)piperidin-4-yl)-3-isopropyl-1H-indol-2-yl)-1,3-dimethylpyridin-2(1H)-one]	3.1	8.04	4.7
Cc1cc(-c2[nH]c3ccc(C4CCN([C@H]5COCC[C@@H]5O)CC4)cc3c2C(C)C)cn(C)c1=O [Example 314, 5-(5-(1-((3S,4S)-4-hydroxytetrahydro-2H-pyran-3-yl)piperidin-4-yl)-3-isopropyl-1H-indol-2-yl)-1,3-dimethylpyridin-2(1H)-one]	5.1	10.1	5.2
CCn1cc(-c2[nH]c3ccc(C4CCN(CC(=O)NC)CC4)cc3c2C(C)C)c(C)c(C)c1=O [Example 137, 2-(4-(2-(1-ethyl-4,5-dimethyl-6-oxo-1,6-dihydropyridin-3-yl)-3-isopropyl-1H-indol-5-yl)piperidin-1-yl)-N-methylacetamide]	12.3	11.5	19.9
COc1cc(-c2[nH]c3ccc(C4CCN(CC(C)(C)O)CC4)cc3c2C(C)C)c(C)n(C)c1=O [Example 318, 5-(5-(1-(2-hydroxy-2-methylpropyl)piperidin-4-yl)-3-isopropyl-1H-indol-2-yl)-3-methoxy-1,6-dimethylpyridin-2(1H)-one]	22.3	3.43	361
